Source: patent US9150530B2, “Esters of 4, 9-dihydroxy-naphtho [2, 3-b] furans for disease therapies” (Zhoushan Haizhongzhou Xinsheng Pharmaceuticals Co., Ltd., priority 2011, dated 2015)

tested on: A549; assay: Cell viability determination (MTT), A549; format: cell-based; conditions: Homo sapiens, A549, lung cancer, 48 hour incubation, read-out: Drug concentrations for 50% cell viability (IC50)
Description: (§1) Cell Culture: A549, DLD1, SW480, LOVO, HT-29, Hela, U-20S, MES-SA, SK-MEL-28, Panc-1, DU-145, CNE, U251, Eca-109, MGC80-3, QGY-7701, BEL-7404, PLC/PRF/5, Huh-7, and SGC-7901 cells were maintained in Dulbecco's Modified Eagle Medium (DMEM) (imported from Invitrogen, Carlsbad, Calif., USA) supplemented with 10% fetal bovine serum (FBS) (Si Ji Qing, Hangzhou, China) and 1% penicillin/streptomycin/amphotericin B (imported from Invitrogen, Carlsbad, Calif., USA).
(§2) Cell Viability Determination: Popular MTT method (Archives of Biochemistry and Biophysics, 1993, 303: 474-482) was used to screen the in vitro effects of the invented drugs. Briefly, 5000 to 10000 cells were inoculated per well in a 96-well plate. After overnight incubation, drug was added to the wells at final concentration of 10 μM, […], 2.5 μM, 1.25 μM, or 1 μM, 0.75 μM, 0.5 μM and 0.25 μM in complete culture medium. Each dose level covered 4 equivalent wells. After 48 hour incubation, one tenth volume of 5 mg/mL MTT (thiazolyl blue tetrazolium bromide, Sigma-Aldrich) stock solution was added, and incubation was continued for 2 hours. Then medium was removed and 100 μL of isopropanol solution comprising 86% isopropanol, 4% aqueous 1 N HCl and 10% aqueous SDS solution (10% in concentration) was added. The absorbance of each well at 570 nm wavelength was measured by a micro-plate reader after gentle shaking for 20 minutes. Drug concentrations of 50% cell viability (IC50) were calculated by LOGIT method.

Row | SMILES | IC50 [nM]
1 | CC(=O)Oc1c2ccccc2c(OC(C)=O)c2oc(C(C)=O)cc12 [2-acetyl-4,9-bis(acetoxy)-naphtho[2,3-b]furan, reference compound] | 1700

tested on: DLD1; assay: Cell viability determination (MTT), DLD1; format: cell-based; conditions: Homo sapiens, DLD-1, DLD1, colorectal cancer, 48 hour incubation, read-out: Drug concentrations for 50% cell viability (IC50)
Description: as §1, §2

Row | SMILES | IC50 [nM]
2 | CC(=O)Oc1c2ccccc2c(OC(C)=O)c2oc(C(C)=O)cc12 [2-acetyl-4,9-bis(acetoxy)-naphtho[2,3-b]furan, reference compound] | 1800
3 | CC(=O)c1cc2c(OC(=O)C(C)(C)C)c3ccccc3c(OC(=O)C(C)(C)C)c2o1 [compound II, 2-acetyl-4,9-Bis(pivaloxy)-naphtho[2,3-b]furan] | > 4000

tested on: SW480; assay: Cell viability determination (MTT), SW480; format: cell-based; conditions: Homo sapiens, SW480, colorectal cancer, 48 hour incubation, read-out: Drug concentrations for 50% cell viability (IC50)
Description: as §1, §2

Row | SMILES | IC50 [nM]
4 | CC(=O)Oc1c2ccccc2c(OC(C)=O)c2oc(C(C)=O)cc12 [2-acetyl-4,9-bis(acetoxy)-naphtho[2,3-b]furan, reference compound] | 860
5 | CC(=O)c1cc2c(OC(=O)C(C)(C)C)c3ccccc3c(OC(=O)C(C)(C)C)c2o1 [compound II, 2-acetyl-4,9-Bis(pivaloxy)-naphtho[2,3-b]furan] | > 4000

tested on: LOVO; assay: Cell viability determination (MTT), LOVO; format: cell-based; conditions: Homo sapiens, colorectal cancer, 48 hour incubation, read-out: Drug concentrations for 50% cell viability (IC50)
Description: as §1, §2

Row | SMILES | IC50 [nM]
6 | CC(=O)Oc1c2ccccc2c(OC(C)=O)c2oc(C(C)=O)cc12 [2-acetyl-4,9-bis(acetoxy)-naphtho[2,3-b]furan, reference compound] | 1100
7 | CC(=O)c1cc2c(OC(=O)C(C)(C)C)c3ccccc3c(OC(=O)C(C)(C)C)c2o1 [compound II, 2-acetyl-4,9-Bis(pivaloxy)-naphtho[2,3-b]furan] | > 4000

tested on: Hela; assay: Cell viability determination (MTT), Hela; format: cell-based; conditions: Homo sapiens, cervical cancer, 48 hour incubation, read-out: Drug concentrations for 50% cell viability (IC50)
Description: as §1, §2

Row | SMILES | IC50 [nM]
8 | CC(=O)Oc1c2ccccc2c(OC(C)=O)c2oc(C(C)=O)cc12 [2-acetyl-4,9-bis(acetoxy)-naphtho[2,3-b]furan, reference compound] | 1200

tested on: U-20S; assay: Cell viability determination (MTT), U-20S; format: cell-based; conditions: osteosarcoma, 48 hour incubation, read-out: Drug concentrations for 50% cell viability (IC50)
Description: as §1, §2

Row | SMILES | IC50 [nM]
9 | CC(=O)Oc1c2ccccc2c(OC(C)=O)c2oc(C(C)=O)cc12 [2-acetyl-4,9-bis(acetoxy)-naphtho[2,3-b]furan, reference compound] | 1000

tested on: MES-SA; assay: Cell viability determination (MTT), MES-SA; format: cell-based; conditions: Homo sapiens, leiomyosarcoma, 48 hour incubation, read-out: Drug concentrations for 50% cell viability (IC50)
Description: as §1, §2

Row | SMILES | IC50 [nM]
10 | CC(=O)Oc1c2ccccc2c(OC(C)=O)c2oc(C(C)=O)cc12 [2-acetyl-4,9-bis(acetoxy)-naphtho[2,3-b]furan, reference compound] | 600

tested on: SK-MEL-28; assay: Cell viability determination (MTT), SK-MEL-28; format: cell-based; conditions: Homo sapiens, SK-MEL-28, malignant melanoma, 48 hour incubation, read-out: Drug concentrations for 50% cell viability (IC50)
Description: as §1, §2

Row | SMILES | IC50 [nM]
11 | CC(=O)Oc1c2ccccc2c(OC(C)=O)c2oc(C(C)=O)cc12 [2-acetyl-4,9-bis(acetoxy)-naphtho[2,3-b]furan, reference compound] | 300

tested on: Panc-1; assay: Cell viability determination (MTT), Panc-1; format: cell-based; conditions: Homo sapiens, Panc-1, pancreatic cancer, 48 hour incubation, read-out: Drug concentrations for 50% cell viability (IC50)
Description: as §1, §2

Row | SMILES | IC50 [nM]
12 | CC(=O)Oc1c2ccccc2c(OC(C)=O)c2oc(C(C)=O)cc12 [2-acetyl-4,9-bis(acetoxy)-naphtho[2,3-b]furan, reference compound] | 1500
13 | CC(=O)c1cc2c(OC(=O)C(C)(C)C)c3ccccc3c(OC(=O)C(C)(C)C)c2o1 [compound II, 2-acetyl-4,9-Bis(pivaloxy)-naphtho[2,3-b]furan] | 3000

tested on: DU-145; assay: Cell viability determination (MTT), DU-145; format: cell-based; conditions: Homo sapiens, DU-145, prostate cancer, 48 hour incubation, read-out: Drug concentrations for 50% cell viability (IC50)
Description: as §1, §2

Row | SMILES | IC50 [nM]
14 | CC(=O)Oc1c2ccccc2c(OC(C)=O)c2oc(C(C)=O)cc12 [2-acetyl-4,9-bis(acetoxy)-naphtho[2,3-b]furan, reference compound] | 1000

tested on: CNE; assay: Cell viability determination (MTT), CNE; format: cell-based; conditions: Homo sapiens, nasopharyngeal cancer, 48 hour incubation, read-out: Drug concentrations for 50% cell viability (IC50)
Description: as §1, §2

Row | SMILES | IC50 [nM]
15 | CC(=O)Oc1c2ccccc2c(OC(C)=O)c2oc(C(C)=O)cc12 [2-acetyl-4,9-bis(acetoxy)-naphtho[2,3-b]furan, reference compound] | 1500

tested on: U251; assay: Cell viability determination (MTT), U251; format: cell-based; conditions: Homo sapiens, U-251, U251, glioma, 48 hour incubation, read-out: Drug concentrations for 50% cell viability (IC50)
Description: as §1, §2

Row | SMILES | IC50 [nM]
16 | CC(=O)Oc1c2ccccc2c(OC(C)=O)c2oc(C(C)=O)cc12 [2-acetyl-4,9-bis(acetoxy)-naphtho[2,3-b]furan, reference compound] | 1080

tested on: Eca-109; assay: Cell viability determination (MTT), Eca-109; format: cell-based; conditions: Homo sapiens, Eca-109, esophageal cancer, 48 hour incubation, read-out: Drug concentrations for 50% cell viability (IC50)
Description: as §1, §2

Row | SMILES | IC50 [nM]
17 | CC(=O)Oc1c2ccccc2c(OC(C)=O)c2oc(C(C)=O)cc12 [2-acetyl-4,9-bis(acetoxy)-naphtho[2,3-b]furan, reference compound] | 1400
18 | CC(=O)c1cc2c(OC(=O)C(C)(C)C)c3ccccc3c(OC(=O)C(C)(C)C)c2o1 [compound II, 2-acetyl-4,9-Bis(pivaloxy)-naphtho[2,3-b]furan] | > 4000

tested on: not listed separately; assay: Human plasma incubation, HPLC analysis of degradation products; format: in vitro ADME; conditions: 20 μM in human plasma, 37° C., 2 hours
Procedure: The compounds of formula I were incubated in human plasma at 37° C. for 2 hours, and then the mixtures were treated with acetonitrile to remove protein and the resulting supernatants were analyzed by HPLC (FIG. 2). […] Without wishing to be bound by a particular theory, it is believed that, although not detected due to instability in a protein-free environment, the direct hydrolysis product of a compound of formula I, 4,9-dihydroxy-naphtho[2,3-b]furan, and its partially oxidized product semihydroquinone (shown in scheme 6) co-exist in vivo and play important biological roles.
HPLC column: Waters Sunfire C18, 250×4.60 mm 5 micron; Mobile phase: buffer A, 90% 5 mM potassium phosphate buffer, pH 6.8, 10% acetonitrile; buffer B, 15% 5 mM potassium phosphate buffer, pH 6.8, 85% acetonitrile; Detector: Waters 2998 Photodiode Array Detector.
Gradient B: 0-3 min, 50% buffer B, 3-5 min, 50%-100% buffer B, 5-18 min, 100% buffer B, 18-22 min, 100%-50% buffer B, 22-25 min, […]; flow rate, 1 ml/min. Analysis of the 4,9-dihydroxy-naphtho[2,3-b]furan compounds (FIG. 1)
10 mM of a compound of formula I or its analog in DMSO (however, compound VI was in DMF) was diluted with human plasma to 20 μM, and the resulting mixtures were incubated at 37° C. for 2 hours. To plasma sample, 9 times volume of acetonitrile was added. The resulting mixtures were vortexed and incubated in dry ice for 30 minutes or in −20° C. freezer for 3 hours, then centrifuged, and supernatant was used for HPLC analysis using gradient B.

Row | SMILES | Degradation / detectable products after incubation in human plasma
19 | CC(=O)Oc1c2ccccc2c(OC(C)=O)c2oc(C(C)=O)cc12 [2-acetyl-4,9-bis(acetoxy)-naphtho[2,3-b]furan, reference compound] | the only detectable product was compound XIII
20 | CC(=O)c1cc2c(OC(=O)C(C)(C)C)c3ccccc3c(OC(=O)C(C)(C)C)c2o1 [compound II, 2-acetyl-4,9-Bis(pivaloxy)-naphtho[2,3-b]furan] | barely degraded

tested on: DLD1; assay: Effect of NQ01 inhibitor (dicumarol) on biological activity, MTT, DLD1; format: cell-based; conditions: DLD1 (significant NQ01 enzymatic activity); dicumarol 40 μM; 48 hr
Procedure: as §2
(§3) Effect of NQ01 Inhibitor (Dicumarol) on the Biological Activities of 2-acetyl-4,9-diacetoxy-naphtho[2,3-b]furan and Compound XIII (Part B and C of FIG. 4):MTT assay was used for this experiment. Same procedure as described in “Cell Viability Determination” section. […] The viability of cells at each well was read out after 48 hr incubation in cell culture incubator.

Row | SMILES | Dicumarol effect on anticancer activity
21 | CC(=O)Oc1c2ccccc2c(OC(C)=O)c2oc(C(C)=O)cc12 [2-acetyl-4,9-bis(acetoxy)-naphtho[2,3-b]furan, reference compound] | dicumarol attenuates anticancer activities

tested on: Panc-1; assay: Effect of NQ01 inhibitor (dicumarol) on biological activity, MTT, Panc-1; format: cell-based; conditions: Panc-1 (no significant NQ01 enzymatic activity); dicumarol 40 μM; 48 hr
Procedure: as §2, §3

Row | SMILES | Dicumarol effect on anticancer activity
22 | CC(=O)Oc1c2ccccc2c(OC(C)=O)c2oc(C(C)=O)cc12 [2-acetyl-4,9-bis(acetoxy)-naphtho[2,3-b]furan, reference compound] | dicumarol showed little effect
